Measured values reported in patent US20040204474A1, “Carvedilol-lipophilic solutions” (priority 2000, published 2004).
Like-named read-outs stand apart in the source and are kept apart here.

Assays:
[1] = gastrointestinal resorption after peroral administration; format: in vivo; settings: rapid release formulations, e.g. the commercial formulation
[2] = solubility of carvedilol in adjuvants and solvents with lipophilic character; format: physicochemical; settings: for solubility: oil or lipid
[3] = solubility of carvedilol in aqueous media; format: physicochemical; settings: about pH 1-2

With `COc1ccccc1OCCNCC(O)COc1cccc2[nH]c3ccccc3c12` (centres unmarked) [carvedilol, 1-(4-carbazolyloxy)-3-[2-(2-methoxyphenoxy)ethyl-amino]-2-propanol] the resorption quota [1] was “up to 80%”, the “solubility in pronounced lipophilic solvents (paraffin, petroleum ether)” value [2] was “very low” and the “solubility in benzyl alcohol” value ([2]; at 37° C.) was > 100 mg of carvedilol per ml. It also gave a solubility ([2]; capric acid, 37 °C, at 37° C., read-out: solubility in capric acid) of over 100 mg/mL, a solubility ([2]; in many cases, read-out: solubility in glycerol oleyloleate, medium chain triglycerides and natural oils) of under 10 mg/mL and a solubility ([2]; all named solvents, read-out: solubility in glycerol oleyloleate, medium chain triglycerides and natural oils (cod liver, soya bean, sesame, peanut, olive, cottonseed oil)) of under 50 mg/mL. The solubility ([2]; oleic acid, 37 °C, at 37° C., read-out: solubility in oleic acid) was over 100 mg/mL and the “solubility in aqueous media, strongly acidic region” value [3] was “very low solubility”.
